Activity calls are given as the source filed them. The rule behind the calls is not given here.
What was measured:
Peritoneal macrophage [1] = assay: Induction of chemotaxis in mouse Peritoneal macrophage assessed as upregulation of MCP-1 production at 100 ug/ml preincubated with KN-62 followed by compound addition by ELISA; format: functional, cell-based; conditions: dose 100.0 µg/ml
Neutrophil [2] = assay: Induction of ROS production in mouse bone marrow derived neutrophil at 25 to 100 ug/ml incubated for 6 hrs by DCFA-DA staining based flow cytometry; format: functional, cell-based; conditions: dose 25-100 µg/ml
Escherichia coli [3] = assay: Antibacterial activity against Carbapenem-resistant Escherichia coli infected in C57BL/6 mouse assessed as reduction in inflammatory injury in lung at 10 mg/kg,ip administrated 5 hrs after bacterial infection measured after 24 hrs by hematoxylin and eosin staining based analysis; format: functional, organism-based; conditions: time 19.0 hrs
Peritoneal macrophage [4] = assay: Immunomodulatory activity in mouse Peritoneal macrophage assessed as decrease in LPS-induced IL-6 production at 25 to 100 ug/ml incubated for 6 hrs by ELISA; format: functional, cell-based; conditions: dose 25-100 µg/ml
Escherichia coli [5] = assay: Antibacterial activity against Carbapenem-resistant Escherichia coli infected in C57BL/6 mouse assessed as reduction in IL-6 level in peritoneal fluid at 10 mg/kg,ip pre-administrated 5 hrs before bacterial infection measured after 24 hrs by ELISA; format: functional, organism-based; conditions: time 29.0 hrs
Peritoneal macrophage [6] = assay: Immunoregulatory activity in mouse Peritoneal macrophage assessed as change in total JNK expression at 25 to 100 ug/ml incubated for 1 hr by Western blotting analysis; format: functional, cell-based; conditions: dose 25-100 µg/ml
Neutrophil [7] = assay: Induction of chemotaxis in mouse bone marrow derived neutrophil assessed as increase in neutrophil migration incubated for 8 hrs in presence of macrophage by crystal violet staining based indirect transwell assay; format: functional, cell-based
Alcaligenes faecalis = assay: Antimicrobial activity against Alcaligenes faecalis ATCC 8750 assessed as inhibition of microbial growth at <= 200 ug/ml incubated for 18 hrs by micro-broth dilution method; format: functional, organism-based; conditions: dose <= 200.0 µg/ml
Escherichia coli [8] = assay: Antibacterial activity against Escherichia coli ATCC 25922 infected in C57BL/6 mouse assessed as reduction in IL-1beta level in serum at 10 mg/kg,ip pre-administrated 5 hrs before bacterial infection measured after 24 hrs by ELISA; format: functional, organism-based; conditions: time 29.0 hrs
Staphylococcus aureus [9] = assay: Antibacterial activity against Methicillin-resistant Staphylococcus aureus infected in C57BL/6 mouse assessed as reduction in bacterial load at 10 mg/kg,ip administrated 5 hrs after bacterial infection; format: functional, organism-based
Peritoneal macrophage [10] = assay: Induction of chemotaxis in mouse Peritoneal macrophage assessed as upregulation of CXCL1 gene expression incubated for 6 hrs by qPCR analysis; format: functional, cell-based
Staphylococcus aureus [11] = assay: Antibacterial activity against Staphylococcus aureus ATCC 25923 infected in C57BL/6 mouse assessed as reduction in IL-1beta level in peritoneal fluid at 10 mg/kg,ip administrated 5 hrs after bacterial infection measured after 24 hrs by ELISA; format: functional, organism-based; conditions: time 19.0 hrs
Staphylococcus aureus [12] = assay: Antibacterial activity against Staphylococcus aureus ATCC 25923 infected in C57BL/6 mouse assessed as reduction in bacterial load at 10 mg/kg,ip pre-administrated 5 hrs before bacterial infection; format: functional, organism-based
Mus musculus [13] = assay: Immunomodulatory activity in cyclophosphamide immunosuppressed C57BL/6 mouse with neutrophil depletion model assessed as increase in number of neutrophil in peritoneal lavage at 10 mg/kg,ip administration measured after 12 hrs by flow cytometry; format: functional, organism-based
Peritoneal macrophage [14] = assay: Immunomodulatory activity in mouse Peritoneal macrophage assessed as decrease in LTA-induced IL-6 production at 25 to 100 ug/ml incubated for 6 hrs by ELISA; format: functional, cell-based; conditions: dose 25-100 µg/ml
Peritoneal macrophage [15] = assay: Induction of chemotaxis in mouse Peritoneal macrophage assessed as upregulation of MCP-1 gene expression incubated for 6 hrs by qPCR analysis; format: functional, cell-based
Escherichia coli [16] = assay: Antibacterial activity against Escherichia coli ATCC 25922 infected in C57BL/6 mouse assessed as increase in survival rate at 10 mg/kg,ip administrated 5 hrs after bacterial infection measured after 7 days; format: functional, organism-based; conditions: time 7.0 day
Peritoneal macrophage [17] = assay: Induction of nitric oxide production in mouse Peritoneal macrophage incubated for 6 hrs by Griess reagent based ELISA; format: functional, cell-based
Staphylococcus aureus [18] = assay: Antibacterial activity against Staphylococcus aureus ATCC 25923 infected in C57BL/6 mouse assessed as reduction in TNF-alpha level in peritoneal fluid at 10 mg/kg,ip pre-administrated 5 hrs before bacterial infection measured after 24 hrs by ELISA; format: functional, organism-based; conditions: time 29.0 hrs
Neutrophil [19] = assay: Induction of degranulation in mouse bone marrow derived neutrophil assessed as increase in lactoferrin release at 25 to 100 ug/ml incubated for 6 hrs by ELISA; format: functional, cell-based; conditions: dose 25-100 µg/ml
Staphylococcus aureus [20] = assay: Antibacterial activity against Staphylococcus aureus ATCC 25923 infected in C57BL/6 mouse assessed as reduction in inflammatory injury in lung at 10 mg/kg,ip administrated 5 hrs after bacterial infection measured after 24 hrs by hematoxylin and eosin staining based analysis; format: functional, organism-based; conditions: time 19.0 hrs
Staphylococcus aureus [21] = assay: Antibacterial activity against Methicillin-resistant Staphylococcus aureus infected in C57BL/6 mouse assessed as reduction in IL-6 level in peritoneal fluid at 10 mg/kg,ip pre-administrated 5 hrs before bacterial infection measured after 24 hrs by ELISA; format: functional, organism-based; conditions: time 29.0 hrs
Morganella morganii = assay: Antimicrobial activity against Morganella morganii ATCC25830 assessed as inhibition of microbial growth at <= 200 ug/ml incubated for 18 hrs by micro-broth dilution method; format: functional, organism-based; conditions: dose <= 200.0 µg/ml
Peritoneal macrophage [22] = assay: Immunomodulatory activity in mouse Peritoneal macrophage assessed as decrease in LTA-induced IL-1beta production at 25 to 100 ug/ml incubated for 6 hrs by ELISA; format: functional, cell-based; conditions: dose 25-100 µg/ml
Mus musculus [23] = assay: Immunomodulatory activity in cyclophosphamide immunosuppressed C57BL/6 mouse with neutrophil depletion model assessed as change in B-lymphocytes in peritoneal lavage at 10 mg/kg,ip administration measured after 5 to 24 hrs by flow cytometry; format: functional, organism-based; conditions: time 5-24 hrs
Staphylococcus aureus [24] = assay: Antibacterial activity against Staphylococcus aureus ATCC 25923 infected in C57BL/6 mouse assessed as reduction in TNF-alpha level in serum at 10 mg/kg,ip pre-administrated 5 hrs before bacterial infection measured after 24 hrs by ELISA; format: functional, organism-based; conditions: time 29.0 hrs
Acinetobacter junii = assay: Antimicrobial activity against Acinetobacter junii ATCC 17908 assessed as inhibition of microbial growth at <= 200 ug/ml incubated for 18 hrs by micro-broth dilution method; format: functional, organism-based; conditions: dose <= 200.0 µg/ml
Neutrophil [25] = assay: Induction of chemotaxis in mouse bone marrow derived neutrophil assessed as increase in neutrophil migration at 100 ug/ml preincubated with PTX for 30 mins followed by compound addition measured after 8 hrs by crystal violet staining based indirect transwell assay; format: functional, cell-based; conditions: dose 100.0 µg/ml
Escherichia coli [26] = assay: Antibacterial activity against Carbapenem-resistant Escherichia coli infected in C57BL/6 mouse with cyclophosphamide-induced neutrophil depletion model assessed as decrease in bacterial burden in peritoneal cavity at 10 mg/kg,ip administrated 5 hrs after bacterial infection measured after 24 hrs; format: functional, organism-based; conditions: time 19.0 hrs
Escherichia coli [27] = assay: Antimicrobial activity against Carbapenem-resistant Escherichia coli assessed as reduction in microbial colony forming unit at 200 ug/ml incubated for 1 to 4 hrs by time-kill kinetics based analysis; format: functional, organism-based; conditions: dose 200.0 µg/ml, time 1-4 hrs
Mus musculus [28] = assay: Immunomodulatory activity in cyclophosphamide immunosuppressed C57BL/6 mouse with neutrophil depletion model assessed as change in T-lymphocytes in peritoneal lavage at 10 mg/kg,ip administration measured after 5 to 24 hrs by flow cytometry; format: functional, organism-based; conditions: time 5-24 hrs
Mus musculus [29] = assay: Antithrombotic activity in carrageenan-induced tail thrombosis BALB/c mouse model assessed as reduction in thrombus length at 10 mg/kg,ip administration measured for 6 to 48 hrs; format: functional, organism-based; conditions: time 6-48 hrs

CC[C@H](C)[C@H](NC(=O)[C@@H]1CSSC[C@H](NC(=O)[C@H](CCC(=O)O)NC(=O)[C@@H](NC(=O)[C@H](CCCCN)NC(=O)[C@H](Cc2c[nH]cn2)NC(=O)[C@@H](NC(=O)[C@H](CCCCN)NC(=O)[C@H](CCC(=O)O)NC(=O)[C@H](C)NC(=O)[C@H](CCC(=O)O)NC(=O)[C@H](CCC(=O)O)NC(=O)[C@H](CCC(=O)O)NC(=O)[C@H](C)N)[C@@H](C)O)[C@@H](C)O)C(=O)N[C@@H](CC(C)C)C(=O)N[C@@H](CCC(=O)O)C(=O)N1)C(=O)N[C@@H](Cc1ccccc1)C(=O)N[C@H](C(=O)N[C@@H](CC(C)C)C(=O)N[C@@H](CC(C)C)C(=O)N1CCC[C@H]1C(=O)N1CCC[C@@H]1C(=O)N[C@H](C)C(=O)O)[C@@H](C)O
Activity (Peritoneal macrophage [1]): Active | Activity (Neutrophil [2]): inactive | Activity (Escherichia coli [3]): Active | Activity (Peritoneal macrophage [4]): inactive | Activity (Escherichia coli [5]): Active | Activity (Peritoneal macrophage [6]): inactive | Activity (Neutrophil [7]): Dose-Dependent Effect | Activity (Alcaligenes faecalis): inactive | Activity (Escherichia coli [8]): Active | Activity (Staphylococcus aureus [9]): Active | Activity (Peritoneal macrophage [10]): Dose-Dependent Effect | Activity (Staphylococcus aureus [11]): Active | Activity (Staphylococcus aureus [12]): Active | Activity (Mus musculus [13]): Active | Activity (Peritoneal macrophage [14]): inactive | Activity (Peritoneal macrophage [15]): Dose-Dependent Effect | Activity (Escherichia coli [16]): Active | Activity (Peritoneal macrophage [17]): Dose-Dependent Effect | Activity (Staphylococcus aureus [18]): Active | Activity (Neutrophil [19]): Active | Activity (Staphylococcus aureus [20]): Active | Activity (Staphylococcus aureus [21]): Active | Activity (Morganella morganii): inactive | Activity (Peritoneal macrophage [22]): inactive | Activity (Mus musculus [23]): inactive | Activity (Staphylococcus aureus [24]): Active | Activity (Acinetobacter junii): inactive | Activity (Neutrophil [25]): inactive | Activity (Escherichia coli [26]): inactive | Activity (Escherichia coli [27]): inactive | Activity (Mus musculus [28]): inactive | Activity (Mus musculus [29]): Active

Reference: ChEMBL document CHEMBL5543174, “A Nonbactericidal Anionic Antimicrobial Peptide Provides Prophylactic and Therapeutic Efficacies against Bacterial Infections in Mice by Immunomodulatory-Antithrombotic Duality” (J Med Chem, 2024)
